Source: patent publication US20240182941A1, “XYLOSYLATED STEVIOL GLYCOSIDES AND ENZYMATIC METHODS FOR PRODUCTION” (CARGILL, INCORPORATED, priority 2021, published 2024)
“And” between values parts separate entries of the source, which are not always exact repeats. Equal values may be shown once.

Columns and labels:
[1] = system: glycosyltransferase polypeptide of SEQ ID NO:1; test: SG bioconversion with UDP-xylose using enzyme of SEQ ID NO:1; type: biochemical, Oryza sativa Japonica Group; conditions: enzyme SEQ ID NO:1, 2 ug protein, 96 hours, 30C, runs 1 and 2
Experimental: (§1) Six steviolglycoside (SG) ‘acceptors’ Reb A, B, C, D, M and stevioside were tested using 2 glucosyltransferase enzymes (SEQ ID NO:1 and UGT76G1) known to play key roles in SG biosynthesis in stevia leaves and activated xylose (UDP-xylose).
(§2) UDP-xylose (98.9% purity) and UDP-rhamnose di-sodium salt (95% purity) were purchased from BOC Sciences. The activated sugar donors were prepared to 10 mM concentration with 0.05 M tris buffer and stored according to manufacturers' recommendations before use.
(§3) Enzyme of SEQ ID NO:1 and UGT76G1 enzyme were prepared in E. coli host cells as tagged proteins with expression induced by a chemical inducer. Following induction, the cells were incubated overnight and harvested. The cells were then lysed (either through sonication, mechanical disruption or chemical lysis) and the proteins purified through chromatography and stored frozen at −20C till use. Enzyme activities were confirmed using UDP-glucose in a preliminary test. Frozen enzyme solution was thawed right before use and returned to frozen storage after use.
(§4) SG materials were obtained from various sources with 90%+ purities. All SG materials were prepared at 20 mM with 90% DMSO and stored at ambient temperature. Final DMSO concentration in the reaction mixture was 4.5%.
(§5) Sucrose, previously shown to have a stabilizing effect on the bioconversion reaction, was prepared at 0.1 M with 0.05 M tris buffer.
(§6) Tris (tris(hydroxymethyl)aminomethane) buffer was prepared at 0.05 M, pH 7.3 and contained 3 mM each of MgCl2 and MnCl2 as co-factors.
(§7) Bioconversion reaction was carried out in a total of 100 uL sealed vials containing the Tris buffer, 0.1 μmoles of SG acceptor, 0.2 μmoles of activated sugar donor, 1 μmoles of sucrose and 2 ug protein of the enzymes. To each vial, buffer, sucrose, UDP-sugar donor, and SG acceptor were added in that order before finally the enzymes were added. For each SG donor, a control was included to contain the same amounts of sucrose and enzymes without UDP-sugar donors. After hand mixing, the vials were placed in a temperature-controlled shaker set at 30C and 100 rpm in rotating motion for 96 hours (4 days).
(§8) After 4 days of reaction, 0.9 mL of 80% acetonitrile was added to each vial and the resulting samples were analyzed in LC/MS. Xylose modification of the -19C(O)-β-Glc residue was confirmed.

[2] = target: T1, UGT76G1 (Stevia rebaudiana, UniProt Q6VAB4); test: SG bioconversion with UDP-xylose using UGT76G1; type: biochemical; conditions: enzyme UGT76G1, 2 ug protein, 96 hours, 30C, runs 1 and 2
T1 construct: unspecified tag; made in house; host or cells: E. coli
T1 sequence (Q6VAB4 1-458): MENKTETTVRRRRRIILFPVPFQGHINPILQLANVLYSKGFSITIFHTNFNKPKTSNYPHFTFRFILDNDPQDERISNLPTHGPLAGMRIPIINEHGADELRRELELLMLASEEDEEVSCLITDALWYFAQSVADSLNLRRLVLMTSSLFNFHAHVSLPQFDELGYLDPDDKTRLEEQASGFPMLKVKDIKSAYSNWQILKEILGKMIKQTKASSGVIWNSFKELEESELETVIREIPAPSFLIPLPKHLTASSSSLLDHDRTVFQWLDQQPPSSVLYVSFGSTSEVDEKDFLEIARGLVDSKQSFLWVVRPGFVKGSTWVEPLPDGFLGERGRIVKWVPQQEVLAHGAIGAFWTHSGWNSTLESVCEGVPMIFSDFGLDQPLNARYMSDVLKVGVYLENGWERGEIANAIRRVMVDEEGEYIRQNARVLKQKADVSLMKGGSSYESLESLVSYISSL
Experimental: as §1, §2, §3, §4, §5, §6, §7, §8

[3] = system: purified protein of SEQ ID NO:1; test: Time course of glycosylation of Reb A using SEQ ID NO:1 and activated sugars; type: biochemical, Oryza sativa Japonica Group
Experimental: as §7, §8
The ability of SEQ ID NO:1 to glycosylate Reb A with different activated sugars used at different concentrations was examined, with the reaction products formed being measured over the course of the reaction.
Purified protein of SEQ ID NO:1 was used with UDP-glucose, UDP-xylose, and UDP-rhamnose di-sodium salts, and the reagents and reaction conditions were as described in Example 1.

[4] = cited from earlier work
[5] = Glycosyltransferase assay of SEQ ID NO:1 homologs and variants (IVTT enzymes) on Reb A; type: biochemical; conditions: Reb A acceptor, SEQ ID1 = 100%; for Activity relative to the activity of SEQ ID NO:1, Glucose: UDP-glucose; for Activity relative to the activity of SEQ ID NO:1, Xylose: UDP-xylose
Experimental: Candidate xylosyltransferase enzymes are produced in vitro using the PURExpress In Vitro Protein Synthesis kit from New England Biolabs (NEB #E6800) according to the manufacturer's instructions, including 250 ng plasmid DNA and the addition of 20 units RNase Inhibitor, Murine (NEB #M0314).
The steviol glycoside (SG) ‘acceptors’ Reb A was tested using 4 glucosyltransferase enzymes (SEQ ID NOs: 1-4) homologous to glucosyltransferases in SG biosynthesis in stevia leaves.
UDP-xylose (98.9% purity) was purchased from BOC Sciences. The activated sugar donors were prepared to 10 mM concentration with 0.05 M tris buffer and stored according to manufacturers' recommendations before use. SG materials were obtained from various sources with 90%+ purities. All SG materials were prepared at 20 mM with 90% DMSO and stored at ambient temperature. Final DMSO concentration in the reaction mixture was 4.5%.
as §6
Enzymes were produced via in vitro transcription-translation (IVTT) and activities were confirmed using UDP-glucose in a preliminary test. Bioconversion reaction was carried out in a total of 100 μL sealed vials containing the Tris buffer, 0.1 μmoles of SG acceptor, 0.2 μmoles of activated sugar donor, 1 μmoles of sucrose and 2 μg protein of the enzymes. To each vial, buffer, UDP-sugar donor, SG acceptor were added in that order before, finally, the enzymes were added. For each SG donor, a control was included to contain the same amounts of enzymes without UDP-sugar donors. […]
[…] Xylose modification of the -19C(O)-β-Glc residue was confirmed.
Activity of SEQ ID NOs: 2-4 is expressed relative to the activity of SEQ ID NO:1. […] [SEQ ID NO:3 was run more than once in this experiment,]

Molecule: C=C1C[C@@]23CC[C@H]4[C@@](C)(CCC[C@@]4(C)C(=O)O[C@@H]4O[C@H](CO)[C@@H](O)[C@H](O)[C@H]4O)[C@@H]2CC[C@]1(O[C@@H]1O[C@H](CO)[C@@H](O)[C@H](O)[C@H]1O[C@@H]1O[C@H](CO)[C@@H](O)[C@H](O)[C@H]1O)C3 [Stevioside, stevioside]
- % SG bioconversion with UDP-xylose [1]: 85.9% and 90.2%
- % SG bioconversion with UDP-xylose ([1]; listed as stevioside): very high conversion
- % SG bioconversion with UDP-xylose [2]: 40.5% and 39.0%

Molecule: C=C1C[C@@]23CC[C@H]4[C@@](C)(CCC[C@@]4(C)C(=O)O[C@@H]4O[C@H](CO)[C@@H](O)[C@H](O)[C@H]4O[C@@H]4O[C@H](CO)[C@@H](O)[C@H](O)[C@H]4O)[C@@H]2CC[C@]1(O[C@@H]1O[C@H](CO)[C@@H](O)[C@H](O[C@@H]2O[C@H](CO)[C@@H](O)[C@H](O)[C@H]2O)[C@H]1O[C@@H]1O[C@H](CO)[C@@H](O)[C@H](O)[C@H]1O)C3 [Reb D, Rebaudioside D]
- % SG bioconversion with UDP-xylose [1]: ~10%
- % SG bioconversion with UDP-xylose [2]: 0%

Molecule: C=C1C[C@@]23CC[C@H]4[C@@](C)(CCC[C@@]4(C)C(=O)O[C@@H]4O[C@H](CO)[C@@H](O)[C@H](O)[C@H]4O)[C@@H]2CC[C@]1(O[C@@H]1O[C@H](CO)[C@@H](O)[C@H](O[C@@H]2O[C@H](CO)[C@@H](O)[C@H](O)[C@H]2O)[C@H]1O[C@@H]1O[C@H](CO)[C@@H](O)[C@H](O)[C@H]1O)C3 [Reb A, rebaudioside A]
- glucosylation and xylosylation plateaued after ([3]; 1 mM activated sugars): 20 min
- Rhamnosylation using UDP-rhamnose compared with glucosylation and xylosylation ([3]; 2 mM activated sugars): significantly lower
- glucosylation and xylosylation plateaued after ([3]; 2 mM activated sugars): 20 min
- % Reb A bioconversion ([3]; UDP-Glucose (1 mM), 0 hours): 0%
- % Reb A bioconversion ([3]; UDP-Glucose (1 mM), 18 hours): 68.47%
- % Reb A bioconversion ([3]; UDP-Glucose (1 mM), 48 hours): 68.6%
- % Reb A bioconversion ([3]; UDP-Glucose (1 mM), 96 hours): 68.1%
- % Reb A bioconversion ([3]; UDP-Glucose (2 mM), 0 hours): 0%
- % Reb A bioconversion ([3]; UDP-Glucose (2 mM), 18 hours): 84.93%
- % Reb A bioconversion ([3]; UDP-Glucose (2 mM), 48 hours): 83.9%
- % Reb A bioconversion ([3]; UDP-Glucose (2 mM), 96 hours): 82.1%
- % Reb A bioconversion ([3]; UDP-Rhamnose (2 mM), 0 hours): 0%
- % Reb A bioconversion ([3]; UDP-Rhamnose (2 mM), 18 hours): 14.7%
- % Reb A bioconversion ([3]; UDP-Rhamnose (2 mM), 48 hours): 25%
- % Reb A bioconversion ([3]; UDP-Rhamnose (2 mM), 96 hours): 30%
- % Reb A bioconversion ([3]; UDP-Xylose (1 mM), 0 hours): 0%
- % Reb A bioconversion ([3]; UDP-Xylose (1 mM), 18 hours): 60.09%
- % Reb A bioconversion ([3]; UDP-Xylose (1 mM), 48 hours): 60.39%
- % Reb A bioconversion ([3]; UDP-Xylose (1 mM), 96 hours): 60.66%
- % Reb A bioconversion ([3]; UDP-Xylose (2 mM), 0 hours): 0%
- % Reb A bioconversion ([3]; UDP-Xylose (2 mM), 18 hours): 83.26%
- % Reb A bioconversion ([3]; UDP-Xylose (2 mM), 48 hours): 83.5%
- % Reb A bioconversion ([3]; UDP-Xylose (2 mM), 96 hours): 82.33%
- sweetness relative to sucrose ([4]; times sweeter than sucrose): 250-300 times

Molecule: C=C1C[C@@]23CC[C@H]4[C@@](C)(CCC[C@@]4(C)C(=O)O)[C@@H]2CC[C@]1(O[C@@H]1O[C@H](CO)[C@@H](O)[C@H](O[C@@H]2O[C@H](CO)[C@@H](O)[C@H](O)[C@H]2O)[C@H]1O[C@@H]1O[C@H](CO)[C@@H](O)[C@H](O)[C@H]1O)C3 [Reb B]
- % SG bioconversion with UDP-xylose [1]: 0%
- % SG bioconversion with UDP-xylose [2]: 0%

Molecule: C=C1C[C@@]23CC[C@H]4[C@@](C)(CCC[C@@]4(C)C(=O)O[C@@H]4O[C@H](CO)[C@@H](O)[C@H](O[C@@H]5O[C@H](CO)[C@@H](O)[C@H](O)[C@H]5O)[C@H]4O[C@@H]4O[C@H](CO)[C@@H](O)[C@H](O)[C@H]4O)[C@@H]2CC[C@]1(O[C@@H]1O[C@H](CO)[C@@H](O)[C@H](O[C@@H]2O[C@H](CO)[C@@H](O)[C@H](O)[C@H]2O)[C@H]1O[C@@H]1O[C@H](CO)[C@@H](O)[C@H](O)[C@H]1O)C3 [Reb M, Rebaudioside M]
- % SG bioconversion with UDP-xylose [1]: 0%
- % SG bioconversion with UDP-xylose [2]: 0%

Molecule: rebaudioside C [Reb C]
- % SG bioconversion with UDP-xylose [2]: 11.0% and 10.1%
- sweetness relative to glucose ([4]; times sweeter than glucose): 30 times

B1: SEQ ID4: glucosyltransferase enzyme, 25% identity to SEQ ID NO:1 (protein, listed as Lycium barbarum)
chain: MGTEVTVHKNTLRVLMFPWLAYGHISPFLNVAKKLVDRGFLIYLCSTAINLKSTIKKIPEKYSDSIQLIELHLPELPELPPHYHTTNGLPPHLNHTLQKALKMSKPNFSKILQNLKPDLVIYDLLQQWAEGVANEQNIPAVKLLTSGAAVLSYFFNLVKKPGVEFPFPAIYLRKNELEKMSELLAQSAKDKEPDGVDPFADGNMQVMLMSTSRIIEAKYIDYFSGLSNWKVVPVGPPVQDPIADDADEMELIDWLGKKDENSTVFVSFGSEYFLSKEDREEIAFGLELSNVNFIWVARFPKGEEQNLEDALPKGFLERIGDRGRVLDKFAPQPRILNHPSTGGFISHCGWNSVMESVDFGVPIIAMPIHLDQPMNARLIVELGVAVEIVRDDYGKIHREEIAEILKDVIAGKSGENLKAKMRDISKNLKSIRDEEMDTAAEELIQLCKNSPKLK
- Activity relative to the activity of SEQ ID NO:1, Glucose ([5]; 18 hrs): 174%
- Activity relative to the activity of SEQ ID NO:1, Glucose ([5]; 48 hrs): 151%
- Activity relative to the activity of SEQ ID NO:1, Glucose ([5]; 96 hrs): 170%
- Activity relative to the activity of SEQ ID NO:1, Xylose ([5]; 18 hrs): 11.5%
- Activity relative to the activity of SEQ ID NO:1, Xylose ([5]; 48 hrs): 9.68%
- Activity relative to the activity of SEQ ID NO:1, Xylose ([5]; 96 hrs): 10.9%
